Source: patent US12384771B2, “Pleuromutilin derivative containing thiazole-pyridine benzyl quaternary ammonium salt side chain and preparation method and use thereof” (SHAANXI UNIVERSITY OF SCIENCE AND TECHNOLOGY, priority 2022, dated 2025)
In brackets after ≈: the same amount, converted by molar mass. Counter-ions that a name gives are not always drawn. Like-named read-outs stand apart in the source and are kept apart here. One block for each molecule: values may come before it.

Tests used:
[1] = test system: Staphylococcus epidermidis ATCC 12228; assay: MIC, microbroth dilution, standard strains; format: cell-based
Description: (§1) The minimum inhibitory concentration (MIC) of the pleuromutilin derivative containing thiazole-pyridine benzyl quaternary ammonium salt side chain was tested with moxifloxacin as a positive control (purchased from Shanghai Macklin Biochemical Technology Co., Ltd.) using a microbroth dilution method.
(§2) Standard strains include gram-positive bacteria: Staphylococcus epidermidis ATCC 12228, Staphylococcus aureus ATCC 29213, ATCC 25923 and methicillin-resistant Staphylococcus aureus ATCC 33591; gram-negative bacteria: Salmonella ATCC 14028, Acinetobacter baumannii ATCC 19606, Escherichia coli ATCC 25922 and CMCC 44103, all the strains were purchased from the American Type Culture Collection.

[2] = test system: methicillin-resistant Staphylococcus aureus ATCC 33591; assay: MIC, microbroth dilution, standard strains; format: cell-based
Description: as §1, §2

[3] = test system: Salmonella ATCC 14028; assay: MIC, microbroth dilution, standard strains; format: cell-based
Description: as §1, §2

[4] = test system: Escherichia coli CMCC 44103; assay: MIC, microbroth dilution, standard strains; format: cell-based
Description: as §1, §2

[5] = test system: Staphylococcus aureus ATCC 29213; assay: MIC, microbroth dilution, standard strains; format: cell-based
Description: as §1, §2

[6] = test system: Acinetobacter baumannii ATCC 19606; assay: MIC, microbroth dilution, standard strains; format: cell-based
Description: as §1, §2

[7] = test system: Escherichia coli ATCC 25922; assay: MIC, microbroth dilution, standard strains; format: cell-based
Description: as §1, §2

[8] = test system: Staphylococcus aureus ATCC 25923; assay: MIC, microbroth dilution, standard strains; format: cell-based
Description: as §1, §2

[9] = test system: multidrug-resistant Klebsiella pneumoniae (MDR-KP) 18-754; assay: MIC, clinical drug-resistant bacteria; format: cell-based
Description: (§3) The minimum inhibitory concentration (MIC) of the pleuromutilin derivative containing thiazole-pyridine benzyl quaternary ammonium salt side chain was tested with moxifloxacin as a positive control (purchased from Shanghai Macklin Biochemical Technology Co., Ltd.) using a microbroth dilution method. At the same time, the pleuromutilin derivative containing thiazole-pyridine benzyl quaternary ammonium salt side chain of the invention was compared with the marketed pleuromutilin antibiotics, such as retapamulin (purchased from Nanjing Chemlin Chemical Industry Co., Ltd.), tiamulin (purchased from Shanghai Yuanye Bio-Technology Co., Ltd) and valnemulin (purchased from Shanghai Acmec Biochemical Co., Ltd), in order to screen out pleuromutilin derivatives with better activity.
(§4) Clinical resistant bacteria include multidrug-resistant Pseudomonas aeruginosa (MDR-PA) 18-993, 18-756 and 18-126, multidrug-resistant Klebsiella pneumoniae (MDR-KP) 18-893, 18-754 and 18-1482, methicillin-resistant Staphylococcus aureus (MRSA) 18-171, 18-209 and 18-575, vancomycin-resistant Enterococcus faecalis (VRE) 18-94, 18-80 and 18-507, and carbapenem-resistant Acinetobacter baumannii (CR-AB) 18-184, 18-560 and 18-882, all the clinical drug-resistant strains were from Huashan Hospital, Fudan University.

[10] = test system: methicillin-resistant Staphylococcus aureus (MRSA) 18-171; assay: MIC, clinical drug-resistant bacteria; format: cell-based
Description: as §3, §4

[11] = test system: carbapenem-resistant Acinetobacter baumannii (CR-AB) 18-882; assay: MIC, clinical drug-resistant bacteria; format: cell-based
Description: as §3, §4

[12] = test system: multidrug-resistant Pseudomonas aeruginosa (MDR-PA) 18-756; assay: MIC, clinical drug-resistant bacteria; format: cell-based
Description: as §3, §4

[13] = test system: multidrug-resistant Pseudomonas aeruginosa (MDR-PA) 18-126; assay: MIC, clinical drug-resistant bacteria; format: cell-based
Description: as §3, §4

[14] = test system: carbapenem-resistant Acinetobacter baumannii (CR-AB) 18-560; assay: MIC, clinical drug-resistant bacteria; format: cell-based
Description: as §3, §4

[15] = test system: vancomycin-resistant Enterococcus faecalis (VRE) 18-507; assay: MIC, clinical drug-resistant bacteria; format: cell-based; settings: read-out: Minimum inhibitory concentration against clinical drug-resistant bacteria
Description: as §3, §4

[16] = test system: methicillin-resistant Staphylococcus aureus (MRSA) 18-209; assay: MIC, clinical drug-resistant bacteria; format: cell-based
Description: as §3, §4

[17] = test system: multidrug-resistant Klebsiella pneumoniae (MDR-KP) 18-893; assay: MIC, clinical drug-resistant bacteria; format: cell-based
Description: as §3, §4

[18] = test system: methicillin-resistant Staphylococcus aureus (MRSA) 18-575; assay: MIC, clinical drug-resistant bacteria; format: cell-based
Description: as §3, §4

[19] = test system: vancomycin-resistant Enterococcus faecalis (VRE) 18-80; assay: MIC, clinical drug-resistant bacteria; format: cell-based; settings: read-out: Minimum inhibitory concentration against clinical drug-resistant bacteria
Description: as §3, §4

[20] = test system: vancomycin-resistant Enterococcus faecalis (VRE) 18-94; assay: MIC, clinical drug-resistant bacteria; format: cell-based; settings: read-out: Minimum inhibitory concentration against clinical drug-resistant bacteria
Description: as §3, §4

[21] = test system: carbapenem-resistant Acinetobacter baumannii (CR-AB) 18-184; assay: MIC, clinical drug-resistant bacteria; format: cell-based
Description: as §3, §4

[22] = test system: multidrug-resistant Pseudomonas aeruginosa (MDR-PA) 18-993; assay: MIC, clinical drug-resistant bacteria; format: cell-based
Description: as §3, §4

[23] = test system: multidrug-resistant Klebsiella pneumoniae (MDR-KP) 18-1482; assay: MIC, clinical drug-resistant bacteria; format: cell-based
Description: as §3, §4

[24] = physchem; settings: thermodynamic from solid
Description: Experimental method: representative compounds 2, 4 and 7 were selected for solubility determination, and retapamulin hydrochloride was used as a control. 1 mg of each sample was taken and quantitatively dissolved in a 10 mL volumetric flask, and the absorption peak area was measured by a high-performance liquid chromatography; then, the saturated solutions of the representative compounds 2, 4 and 7 and the control drug retapamulin were diluted 10-fold, and the absorption peak area was determined by HPLC; their respective solubility was obtained by calculating the absorption peak area.
The experimental instrument was Shimadzu LC-16, the chromatographic column was Hypersil C18 ODS (4.6×250 mm×5 μm), the flow rate was 1.0 mL/min, the detection wavelength was 300 nm, and the mobile phase was 0.05 mol/L of aqueous acetic acid solution:acetonitrile=30:70.

[25] = ATCC12228, ATCC 12228, read-out: Minimum inhibitory concentration
[26] = ATCC33591, ATCC 33591, read-out: Minimum inhibitory concentration
[27] = ATCC14028, ATCC 14028, read-out: Minimum inhibitory concentration
[28] = CMCC44103, CMCC 44103, read-out: Minimum inhibitory concentration
[29] = ATCC29213, ATCC 29213, read-out: Minimum inhibitory concentration
[30] = ATCC19606, ATCC 19606, read-out: Minimum inhibitory concentration
[31] = ATCC25922, ATCC 25922, read-out: Minimum inhibitory concentration
[32] = ATCC25923, ATCC 25923, read-out: Minimum inhibitory concentration
[33] = MDR-KP 18-754, read-out: Minimum inhibitory concentration against clinical drug-resistant bacteria
[34] = MRSA 18-171, read-out: Minimum inhibitory concentration against clinical drug-resistant bacteria
[35] = CR-AB 18-882, read-out: Minimum inhibitory concentration against clinical drug-resistant bacteria
[36] = MDR-PA 18-756, read-out: Minimum inhibitory concentration against clinical drug-resistant bacteria
[37] = MDR-PA 18-126, read-out: Minimum inhibitory concentration against clinical drug-resistant bacteria
[38] = CR-AB 18-560, read-out: Minimum inhibitory concentration against clinical drug-resistant bacteria
[39] = MRSA 18-209, read-out: Minimum inhibitory concentration against clinical drug-resistant bacteria
[40] = MDR-KP 18-893, read-out: Minimum inhibitory concentration against clinical drug-resistant bacteria
[41] = MRSA 18-575, read-out: Minimum inhibitory concentration against clinical drug-resistant bacteria
[42] = CR-AB 18-184, read-out: Minimum inhibitory concentration against clinical drug-resistant bacteria
[43] = MDR-PA 18-993, read-out: Minimum inhibitory concentration against clinical drug-resistant bacteria
[44] = MDR-KP 18-1482, read-out: Minimum inhibitory concentration against clinical drug-resistant bacteria
[45] = pH 1.5, simulated gastric fluid
[46] = read-out: Minimum inhibitory concentration against clinical drug-resistant bacteria
[47] = MRSA, read-out: Minimum inhibitory concentration against clinical drug-resistant bacteria

MIC [1, 25]: 1 mg/L | MIC [2, 26]: 1 mg/L | MIC [3, 27]: 0.5 mg/L | MIC [4, 28]: 1 mg/L | MIC [5, 29]: 0.5 mg/L | MIC [6, 30]: 2 mg/L | MIC [7, 31]: 0.5 mg/L | MIC [8, 32]: 0.5 mg/L | MIC [9, 33]: 32 mg/L | MIC [10, 34]: 16 mg/L | MIC [11, 35]: 8 mg/L | MIC [12, 36]: > 128 mg/L | MIC [13, 37]: 64 mg/L | MIC [14, 38]: > 128 mg/L | MIC ([15]; VRE 18-507): > 128 mg/L | MIC [16, 39]: 128 mg/L | MIC [17, 40]: 64 mg/L | MIC [18, 41]: > 128 mg/L | MIC ([19]; VRE 18-80): 2 mg/L | MIC ([20]; VRE 18-94): > 128 mg/L | MIC [21, 42]: 64 mg/L | MIC [22, 43]: 64 mg/L | MIC [23, 44]: 64 mg/L | solubility ([24]; organic solvent or mixture): 11.9 mg/mL | solubility [24, 45]: 3.12 mg/mL | solubility ([24]; pH 7, water): 2.32 mg/mL
SMILES: C=C[C@]1(C)C[C@@H](OC(=O)CSc2nc(-c3cc[n+](Cc4ccc(OC)cc4)cc3)cs2)[C@]2(C)[C@H](C)CC[C@]3(CCC(=O)[C@H]32)[C@@H](C)[C@@H]1O [Compound 4, 1-(4-(methoxy)benzyl)-4-(2-(8-hydroxy-4,7,9,12-tetramethyl-3-oxo-7-vinyldecahydro-4,9a-propancyclopent[8]cyclen-5-yl)oxy)-2-oxoethyl)thiazol-4-yl)pyridyl bromide salt]

SMILES: C=C[C@]1(C)C[C@@H](OC(=O)CS[C@@H]2C[C@H]3CC[C@@H](C2)N3C)[C@]2(C)[C@H](C)CC[C@]3(CCC(=O)[C@H]32)[C@@H](C)[C@@H]1O [Retapamulin hydrochloride, retapamulin hydrochloride, reference compound]
solubility ([24]; organic solvent or mixture): 1.15 mg/mL | solubility [24, 45]: 0.23 mg/mL | solubility ([24]; pH 7, water): 0.12 mg/mL

SMILES: C=C[C@]1(C)C[C@@H](OC(=O)CS[C@@H]2C[C@H]3CC[C@@H](C2)N3C)[C@]2(C)[C@H](C)CC[C@]3(CCC(=O)[C@H]32)[C@@H](C)[C@@H]1O [Retapamulin, retapamulin, reference compound]
MIC ([1]; ATCC12228, read-out: Minimum inhibitory concentration): 32 mg/L (≈ 61.8 µM) | MIC ([2]; ATCC33591, read-out: Minimum inhibitory concentration): 32 mg/L (≈ 61.8 µM) | MIC ([3]; ATCC14028, read-out: Minimum inhibitory concentration): 128 mg/L (≈ 247 µM) | MIC ([4]; CMCC44103, read-out: Minimum inhibitory concentration): 32 mg/L (≈ 61.8 µM) | MIC ([5]; ATCC29213, read-out: Minimum inhibitory concentration): 4 mg/L (≈ 7.73 µM) | MIC ([6]; ATCC19606, read-out: Minimum inhibitory concentration): 16 mg/L (≈ 30.9 µM) | MIC ([7]; ATCC25922, read-out: Minimum inhibitory concentration): 32 mg/L (≈ 61.8 µM) | MIC ([8]; ATCC25923, read-out: Minimum inhibitory concentration): 4 mg/L (≈ 7.73 µM) | MIC [9, 46]: 128 mg/L (≈ 247 µM) | MIC [10, 47]: 128 mg/L (≈ 247 µM) | MIC [11, 46]: 64 mg/L (≈ 124 µM) | MIC [12, 46]: > 128 mg/L | MIC [13, 46]: 128 mg/L (≈ 247 µM) | MIC [14, 46]: 128 mg/L (≈ 247 µM) | MIC [15]: > 128 mg/L | MIC [16, 47]: 128 mg/L (≈ 247 µM) | MIC [17, 46]: 64 mg/L (≈ 124 µM) | MIC [18, 47]: > 128 mg/L | MIC [19]: > 128 mg/L | MIC [20]: > 128 mg/L | MIC [21, 46]: 128 mg/L (≈ 247 µM) | MIC [22, 46]: 128 mg/L (≈ 247 µM) | MIC [23, 46]: 64 mg/L (≈ 124 µM)

MIC [1, 25]: 1 mg/L | MIC [2, 26]: 1 mg/L | MIC [3, 27]: 2 mg/L | MIC [4, 28]: 0.5 mg/L | MIC [5, 29]: 0.0625 mg/L | MIC [6, 30]: 1 mg/L | MIC [7, 31]: 0.0625 mg/L | MIC [8, 32]: 0.0625 mg/L | MIC [9, 33]: 32 mg/L | MIC [10, 34]: 4 mg/L | MIC [11, 35]: 8 mg/L | MIC [12, 36]: 128 mg/L | MIC [13, 37]: 64 mg/L | MIC [14, 38]: > 128 mg/L | MIC ([15]; VRE 18-507): > 128 mg/L | MIC [16, 39]: 128 mg/L | MIC [17, 40]: 16 mg/L | MIC [18, 41]: > 128 mg/L | MIC ([19]; VRE 18-80): 2 mg/L | MIC ([20]; VRE 18-94): > 128 mg/L | MIC [21, 42]: 16 mg/L | MIC [22, 43]: 128 mg/L | MIC [23, 44]: 64 mg/L | solubility ([24]; organic solvent or mixture): 13.2 mg/mL | solubility [24, 45]: 2.76 mg/mL | solubility ([24]; pH 7, water): 2.02 mg/mL
SMILES: C=C[C@]1(C)C[C@@H](OC(=O)CSc2nc(-c3cc[n+](Cc4ccc(C)cc4)cc3)cs2)[C@]2(C)[C@H](C)CC[C@]3(CCC(=O)[C@H]32)[C@@H](C)[C@@H]1O [Compound 2, 1-(4-Methylbenzyl)-4-(2-((2-((8-hydroxy-4,7,9,12-tetramethyl-3-oxo-7-vinyldecahydro-4,9a-propancyclopent[8]cyclen-5-yl)oxy)-2-oxoethyl)thio)thiazol-4-yl)pyridyl bromide salt]
